Entries after “also recorded” stand apart in the source; their conditions may differ. Bridge positions count the residues as written; N and C are the ends. Square brackets hold non-standard residues; d marks the D form. I, II: the chains in the order shown. ξ: configuration not given here. ξGly(tetradecyl) = CCCCCCCCCCCCCCC(N)C(=O)O
What was measured:
[1] = target: Motavizumab (site II specific); experiment: ELISA binding of Motavizumab to plate-coated vaccine constructs, one-site model; design: species or system human; conditions: serial dilution of antibody on ELISA plates coated with construct; saturation one-site specific binding model; read-out: Mota kD
Protocol: (§1) We further tested the ability of site II and site Ø specific antibodies (Motavizumab and D25, respectively) to recognise the peptides and LCP constructs. Dissociation constant (kD) values were derived from a saturation one-site model. D25 clearly recognised the ØLCP2 (66 ± 14 nM) but not ØLCP1 (Fig. 3A). In comparison, in our analysis D25 bound to the native pre-fusion RSV F (FDs-Cav1) with approximately […] stronger avidity (0.92 ± 0.08 nM). Motavizumab bound IILCP4 with the highest avidity (3.8 ± 0.9 nM), while in our analysis Motavizumab bound FDs-Cav1 with approximately 25 fold stronger avidity (0.15 ± 0.01 nM). Motavizumab also recognised IILCP3, 5, 6 and 7 and IIP5 (Fig. 3B). In general binding avidity was stronger for LCP constructs compared to original peptides.
Figure 3 Binding avidity of monoclonal antibodies against vaccine candidates. Antibody binding assessed by serial dilution of antibody on ELISA plates were coated with vaccine constructs and curve fitting by non-linear regression with a one site specific binding model using Graphpad Prism 7 software. (A) D25 antibody recognised ØLCP2 (kD: 66 ± 014 nM) and to a lesser extent ØP2 (kD: 720 ± 036nM). Binding to FDs Cav1 used as positive control (kD: 0.92 ± 00.08 nM). Motavizumab recognised IILCP4 (kD: 3.8 ± 00.9nM), IILCP5 (kD: 16 ± 03nM), IILCP7 (kD: 17 ± 011nM), IIP5 (kD: 23 ± 05nM) and to a lesser extent IILCP6 (kD: 40 ± 04nM). Binding FDs Cav1 was used as a positive control (kD: 0.15 ± 00.01nM).
(§2) An indirect enzyme-linked immunosorbent assay (ELISA) was used to determine the IgG antibody titre. Peptide antigens were used to coat 96-well plates (TITERTEK®) at a concentration of 5 μg/ml in 20 mM sodium carbonate buffer (pH 9.6), overnight at 4 °C. […] Plates were washed as above and secondary antibody binding was detected with the addition of 3,3′,5,5′-Tetramethylbenzidine (TMB) reagent (Thermo Fisher Scientific) at 50 µl/well. Reactions were stopped with 2M H2SO4 (25 µl/well) and absorbance was read at 450 nm on a SpectraMax® 190 (Molecular Devices) microplate reader.

[2] = test system: relevant antigen (peptide and LCP constructs); experiment: IgG antibody titres in sera of immunised mice against the relevant antigen (ELISA); type: in vivo, C57BL/6 mice; conditions: 30 µg s.c. on day 0, 21, 28, 35, LCP in PBS with 1% DMSO, peptides mixed with PADRE and CFA, ELISA against matched antigen
Protocol: A total of 70 female C57BL/6 mice (6–8 weeks old) were purchased from the University of Queensland Biological Resources (UQBR), and housed in the AIBN animal house facility. All experimental procedures performed in this study were carried out in accordance with National Health & Medical Research Council guidelines and approved by The University of Queensland Animal Ethics Committee. Mice (n=5 per group) were injected subcutaneously at the tail base on day 0, 21, 28, 35 (Supplementary, Fig S15) with 30 µg of each construct in phosphate-buffered saline (PBS). 1% DMSO was included for LCP constructs to aid solubility. The negative control group were administered with 50 μl of PBS. Control groups included peptides (ØP1,2 and IIP3–5) physically mixed with PADRE (1:1) and emulsified in a total volume of 50 μl of complete Freund’s adjuvant (CFA)-PBS (1:1) for the first immunisation and PADRE-peptide mixture in PBS for subsequent immunisations. […]
as §2, with “titre.” for “titre. Peptide antigens were used to coat 96-well plates (TITERTEK®) at a concentration of 5 μg/ml in 20 mM sodium carbonate buffer (pH 9.6), overnight at 4 °C.”

[3] = Particle size analysis by dynamic light scattering; type: physicochemical; conditions: 1% DMSO in PBS, 600 µg/ml, 25 °C, 173° backscattering, five replicates
Protocol: Peptides were dissolved in 1% DMSO in phosphate buffered saline (PBS) to a concentration of 600 µg/ml. Particle size was measured using a Zetasizer Nano ZP instrument (Malvern Instrument, UK) via M3-PALS technique with a 173° backscattering angle, at 25 °C. Measurement was performed in five replicates.

[4] = Secondary structure analysis by circular dichroism; type: physicochemical; conditions: 600 µg/ml; spectra not detected
Protocol: Conformational studies of constructs were performed using a J-710 spectropolarimeter (Jasco Corporation, Japan). Samples with 600 µg/ml concentration were transferred into a low volume quartz cuvette with 0.1 cm path length. CD spectra were analysed between 250 nm and 190 nm wavelengths. Measurements were performed in triplicate (reported as an average of readings). Spectral results are reported as mean residual ellipticity (θ) versus wavelength (nm).

[5] = test system: D25 antibody (site Ø specific); experiment: ELISA binding of D25 antibody to plate-coated vaccine constructs, one-site model; design: species or system human; conditions: construct coated on plate
Protocol: as §1
Figure 3 Binding avidity of monoclonal antibodies against vaccine candidates. Antibody binding assessed by serial dilution of antibody on ELISA plates were coated with vaccine constructs and curve fitting by non-linear regression with a one site specific binding model using Graphpad Prism 7 software. […]
An indirect enzyme-linked immunosorbent assay (ELISA) was used to determine the IgG antibody titre. […] Plates were washed as above and secondary antibody binding was detected with the addition of 3,3′,5,5′-Tetramethylbenzidine (TMB) reagent (Thermo Fisher Scientific) at 50 µl/well. […]

[6] = test system: RSV; experiment: RSV plaque reduction neutralisation test (PRNT); type: cell-based, RSV (A2); conditions: purified chimeric recombinant anti-F antibody, Vero cells
Protocol: Vero cells were seeded in 96-well tissue culture plates (Nunc®) at 4 × 10^4 cells/well in Opti-MEM supplemented with 3% FBS and 100 U penicillin with 100 μg/ml streptomycin. After overnight growth to allow a confluent monolayer, serial dilutions of virus stock were prepared in Opti-MEM (2% FBS and 100 U penicillin with 100 μg/ml streptomycin) and incubated at 37 °C, 5% CO2 for 1 h. Cell monolayers were inoculated with 50 μL of virus and incubated. After 1 h, the inoculum was replaced with overlay medium (Medium 199 with 3% methylcellulose, 2% FBS, 100 U penicillin with 100 μg/ml streptomycin) and incubated at 37 °C for 72 h. Overlay medium was aspirated and cells were fixed (80% acetone) and immunostained with a recombinant anti-RSV monoclonal antibody followed by IRDye® 800CW goat anti-mouse IgG, LI-COR Biosciences (1:2500). Plaques were read using Odyssey® Imager (LI-COR Biosciences) and titre was recorded as PFU/ml.
PRNT assays were performed as previously described. Briefly, pooled Sera was heat inactivated at 56 °C for 30 min. Dilutions of serum were combined with 50 PFU of RSV in serum free Opti-MEM and incubated at 37 °C for 1 h before applying to confluent monolayers of Vero cells in TC96-well plates. Cells were incubated with the serum-virus mixture at 37 °C for 1 h. Inoculum was aspirated and overlay medium was added and cells were incubated at 37 °C for 72 h. […]

Substance | Kd [1] | antigen specific IgG response in sera (in words) [2] | Diameter DLS [3] | further results
Ac-LTNSELLSLINDMPITNDQKKLMSNNVQIVRQQS-NH2 [IIP5] | 23 ± 5 nM | higher specific IgG titres; also recorded: strong response |  | 
I: Ac-LTNSELLSLINDMPITNDQKKLMSNNVQIVRQQS / II: Ac-AKFVAAWTLKAAAKSS[ξGly(tetradecyl)][ξGly(tetradecyl)]-NH2 (amide I:C-II:14) [IILCP5] | 16 ± 3 nM | higher specific IgG titres; also recorded: robust antibody response | 181±25 nm | 
I: Ac-[ξGly(tetradecyl)][ξGly(tetradecyl)]LTNSELLSLINDMPITNDQKKLMSNNVQIVRQQS / II: Ac-AKFVAAWTLKAAAKSS[ξGly(tetradecyl)][ξGly(tetradecyl)]-NH2 (amide I:C-II:14) [IILCP7] | 17 ± 11 nM |  | 261±20 nm | aggregation under CD measurement condition [4]: aggregation
KNYIDKQLLPIVNKQS [ØP1] |  |  |  | recognition by D25 (in words) [5]: Neither ØP1 nor ØLCP1 bound to D25
Motavizumab |  |  |  | neutralisation of RSV by purified antibody (in words) [6]: potent neutralisation

Reference: publication PMC5593926, “Induction of high titred, non-neutralising antibodies by self-adjuvanting peptide epitopes derived from the respiratory syncytial virus fusion protein” (Scientific Reports, 2017)
